Results published in article PMC2720045 (Proteins, 2009).
Entries after “also recorded” stand apart in the source; their conditions may differ. Where two headings read alike, the source gives them in different places.

Assays:
[1] = target: T1, porcine pepsin (Sus scrofa, UniProt P00791); assay: Kinetic inhibition of pepsin; type: biochemical; conditions: for inhibition at 16 µM: pH 3, read-out: Inhibition of pepsin under the screening conditions; for Inhibition of pepsin under the screening conditions: 175 μM substrate, pH 3.0-3.2, 28 °C
[2] = target: T2, mature HIV-1 protease (PR) (Human immunodeficiency virus type 1, UniProt P03367); conditions: cited from earlier work; for Binding constant (Ka), PR / ΔH of binding, PR / −TΔS of binding, PR: ITC, pH 5; for Kd: read-out: KL at 25 °C PR (lit.), 25 °C
[3] = target: T3, PRD25N (HIV-1 protease D25N mutant) (Human immunodeficiency virus type 1, UniProt P03367, D525N, form not given); assay: DSC thermal denaturation of PRD25N with inhibitors; type: binding; conditions: inhibitor 28 μM, pH 4.8-5.0; unliganded PRD25N 58.4
[4] = target: PRD29N (HIV-1 protease D29N mutant) (Human immunodeficiency virus type 1, UniProt P03367, D529N, form not given); conditions: inhibitor 28 μM, pH 4.8-5.0; unliganded PRD29N 59.0
[5] = target: T1, porcine pepsin; assay: DSC of pepsin with inhibitors; type: binding; conditions: DSC pH 3; […] (APV) or 2-fold (Ac-PEP) molar excess; unliganded pepsin Tm 74.2
[6] = system: P. falciparum; conditions: cited from earlier work
[7] = target: T1, porcine pepsin; assay: ITC titration of pepsin with inhibitors; type: binding; conditions: for binding constant (KL) from curve fitting of ITC data, pepsin / stoichiometry of binding to pepsin: 28 °C; for binding constant (KL) from curve fitting of ITC data, pepsin: 50 mM sodium formate pH 3; for stoichiometry of binding to pepsin: pH 3
[8] = system: PRD25N (HIV-1 protease D25N mutant); assay: DSC thermal denaturation of PRD25N with inhibitors; type: binding; conditions: DSC
[9] = target: T2, mature HIV-1 protease (PR); conditions: cited from earlier work
[10] = target: T3, PRD25N (HIV-1 protease D25N mutant); conditions: cited from earlier work
[11] = Tm with inhibitor minus Tm without, twofold molar excess

T1 sequence (P00791 60-385): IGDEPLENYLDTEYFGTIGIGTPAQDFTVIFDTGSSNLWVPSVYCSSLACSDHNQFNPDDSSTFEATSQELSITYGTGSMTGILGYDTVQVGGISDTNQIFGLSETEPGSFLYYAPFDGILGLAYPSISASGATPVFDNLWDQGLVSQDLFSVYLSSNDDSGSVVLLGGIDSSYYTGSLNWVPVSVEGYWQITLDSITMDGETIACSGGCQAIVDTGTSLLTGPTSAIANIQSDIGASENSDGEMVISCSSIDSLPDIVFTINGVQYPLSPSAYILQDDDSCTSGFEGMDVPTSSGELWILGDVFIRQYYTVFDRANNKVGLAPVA

CCC[C@@]1(CCc2ccccc2)CC(O)=C([C@H](CC)c2cccc(NS(=O)(=O)c3ccc(C(F)(F)F)cn3)c2)C(=O)O1 [TPV, Tipranavir]
inhibition at 16 µM [1]: ≤ 50%

CC(C)c1nc(CN(C)C(=O)N[C@H](C(=O)N[C@@H](Cc2ccccc2)C[C@H](O)[C@H](Cc2ccccc2)NC(=O)OCc2cncs2)C(C)C)cs1 [RTV, Ritonavir]
Binding constant (Ka), PR [2]: (1.0 ± 0.1) × 10^10 M^−1
ΔH of binding, PR [2]: -4.3 kcal/mol
−TΔS of binding, PR [2]: -9.4 kcal/mol
Tm PRD25N [3]: 61.1 °C
Tm PRD29N [4]: 66.1 °C
inhibition at 16 µM [1]: 75 to 95%

Cc1c(O)cccc1C(=O)N[C@@H](CSc1ccccc1)[C@H](O)CN1C[C@H]2CCCC[C@H]2C[C@H]1C(=O)NC(C)(C)C [NFV, Nelfinavir]
inhibition at 16 µM [1]: ≤ 50%

CC(C)CN(C[C@@H](O)[C@H](Cc1ccccc1)NC(=O)O[C@H]1CCOC1)S(=O)(=O)c1ccc(N)cc1 [APV, Amprenavir]
ΔTm pepsin [5]: 2.7 °C
Binding constant (Ka), PR [2]: (5.0 ± 0.3) × 10^9 M^−1
ΔH of binding, PR [2]: -6.9 kcal/mol
−TΔS of binding, PR [2]: -6.3 kcal/mol
Tm PRD25N [3]: 58.7 °C
growth of P. falciparum [6]: did not inhibit
Kd [7]: 180 nM
binding constant (KL) from curve fitting of ITC data, pepsin [7]: (5.5 ± 0.5) × 10^6 M
stoichiometry of binding to pepsin ([7]; ITC): 0.97 ± 0.004
Binding constant (Ka), pepsin ([7]; ITC, pH 3, 28 °C): (5.45 ± 0.5) × 10^6 M^−1
ΔH of binding, pepsin ([7]; ITC, pH 3, 28 °C): -4.2 ± 0.3 kcal/mol
−TΔS of binding, pepsin ([7]; ITC, pH 3, 28 °C): -5.1 kcal/mol
Tm PRD29N [4]: 67.5 °C
Ki [1]: 300 nM
inhibition at 16 µM [1]: 75 to 95%

CC(C)(C)NC(=O)[C@@H]1C[C@@H]2CCCC[C@@H]2CN1C[C@@H](O)[C@H](Cc1ccccc1)NC(=O)[C@H](CC(N)=O)NC(=O)c1ccc2ccccc2n1 [SQV, Saquinavir]
Tm PRD25N [3]: 62.6 °C
Tm PRD29N [4]: 72.3 °C
inhibition at 16 µM [1]: ≤ 50%

O=C1N(Cc2ccc(CO)cc2)[C@H](Cc2ccccc2)[C@H](O)[C@@H](O)[C@@H](Cc2ccccc2)N1Cc1ccc(CO)cc1 [DMP323]
Kd [2]: 3.8 nM
Tm PRD25N [3]: 67.3 °C
ΔTm ratio ΔTm(PR)/ΔTm(PRD25N) [8]: 1-2
Tm PRD29N [4]: 69.2 °C
Inhibition of pepsin under the screening conditions ([1]; 24 μM inhibitor): undetected

COC(=O)N[C@H](C(=O)N[C@@H](Cc1ccccc1)[C@@H](O)CN(Cc1ccc(-c2ccccn2)cc1)NC(=O)[C@@H](NC(=O)OC)C(C)(C)C)C(C)(C)C [ATV, Atazanavir]
Kd [2]: 0.035 nM
Tm PRD25N [3]: 61.4 °C
Tm PRD29N [4]: 71.7 °C
Inhibition of pepsin under the screening conditions ([1]; 16 μM inhibitor): undetected; also recorded: no detectable inhibition; also recorded: did not inhibit

acetyl pepstatin [Ac-PEP]
Kd [2]: 440 nM
Tm PRD25N [3]: 58.8 °C
Tm PRD29N [4]: 58.3 °C

CC(C)CN(C[C@@H](O)[C@H](Cc1ccccc1)NC(=O)O[C@H]1CO[C@H]2OCC[C@H]21)S(=O)(=O)c1ccc(N)cc1 [DRV, Darunavir]
−TΔS of binding, PR [2]: -3.1 kcal/mol
ΔTm PR [9, 11]: 22.4 °C
Tm PR ([9]; twofold molar excess of inhibitor, unliganded PR 65.7): 88.1 °C
ΔTm PRD25N [10, 11]: 3.1 °C
Tm PRD25N ([10]; twofold molar excess of inhibitor, unliganded PRD25N 58.4): 61.5 °C
Kd [7]: 1540 nM
difference in ΔG for binding to the two enzymes (PR and pepsin) [7]: 7200 kcal/mol
binding constant (KL) from curve fitting of ITC data, pepsin [7]: (6.5 ± 0.6) × 10^5 M
stoichiometry of binding to pepsin ([7]; ITC): 0.90 ± 0.01
−TΔS of binding, pepsin ([7]; ITC, pH 3, 28 °C): -2.0 kcal/mol
Tm PRD29N [4]: 72.7 °C
Ki [1]: 2140 nM

CC(C)(C)NC(=O)[C@@H]1CN(Cc2cccnc2)CCN1C[C@@H](O)C[C@@H](Cc1ccccc1)C(=O)N[C@H]1c2ccccc2C[C@H]1O [INV, Indinavir]
Inhibition of pepsin under the screening conditions ([1]; 16 μM inhibitor): undetected; also recorded: did not inhibit

Cc1cccc(C)c1OCC(=O)N[C@@H](Cc1ccccc1)[C@@H](O)C[C@H](Cc1ccccc1)NC(=O)[C@H](C(C)C)N1CCCNC1=O [LPV, Lopinavir]
inhibition at 16 µM [1]: ≤ 50%
